These are literature values, as cited in US6682747B1 (Boehringer Ingelheim Pharma KG, priority 1998, dated 2004).

For this series the following is noted: buffered aqueous systems, pH 2-4.

In the case of `Cc1cnc(NC(=O)C2=C(O)c3ccccc3S(=O)(=O)N2C)s1` [meloxicam], the solubility entry was “less than 0.5 μg/ml”.
